Data taken from patent US8337828B2, “Use of thymosin alpha 1, alone or in combination with PTX3 or ganciclovir, for the treatment of cytomegalovirus infection” (priority 2006, dated 2012).
Ends that are not written are not given here.

How the values were obtained:
NK cells = type: in vivo, BALB/c mice; settings: 200 μg/kg for a week
Method: Phenotypic analysis of total (FIG. 2a, FIG. 2b) or NK (FIG. 2c) cells from spleen of MCMV-infected BALB/c mice untreated (−) or treated (+) with 200 μg/kg Thymosin alpha 1 for a week; None represents uninfected mice. Numbers refer to the percentage of positive cells on FACS analysis, a week after the infection. Histograms are representative of 1 out of 4 independent experiments. (FIG. 2d) Cytotoxic activity (by standard 51Cr-release assay against YAC-1 targets) and frequency of IFN-.-producing NK cells by ELISPOT assay from mice treated as above. Bars indicate the standard errors. *P<0.05, infected vs uninfected mice. **P<0.05, Thymosin alpha 1-treated vs untreated infected mice. The results shown are from 5 independent experiments. Flow cytometry analyses. After blocking of FcRs with the anti-CD16/32 (2.4G2) antibody, cells were analyzed for antigen expression with a FACScan flow cytofluorometer (Becton Dickinson, Mountain View, Calif.) equipped with CELLQuest™ software. Control staining of cells with irrelevant Ab was used to obtain background fluorescence values. Abs were from PharMingen. NK cell cytotoxic activity. NK cells, purified from spleens by DX5 microbeads (Miltenyi Biotec), were defined as NK1.1+CD3-cells. NK cytolytic activity was assessed against 51 Cr-labeled YAC-1 lymphoma cells (Blood 2005; 106:4397-4406). Quantification of cytokines by ELISA and ELISPOT assays. The levels of cytokines in the culture supernatants of mitogen-stimulated spleen cells (48 h stimulation with 10 μg/ml ConA) or MCMV-pulsed DC (24 h) were determined by ELISA (R&D Systems and PBL, Biomedical Lab, Milan, Italy). The detection limits (pg/ml) of the assays were <16 for IL-12 p70, <10 for IFN-., <3 for IL-10 and <10 for IFN-a. IFN-.-producing NK cells were enumerated by ELISPOT assay on purified NK (Virus Res. 2003; 98:17-467 25). Results are expressed as the mean number of cytokine-producing cells (±SE) per 10^5 cells, calculated using replicates of serial 2-fold dilutions of cells.

CD11b+DC or pDC = assay: Cytokine production by MCMV-pulsed DC subsets (ELISA); type: cell-based, BALB/c mice; settings: MCMV-infected
Description: Arrow indicates an inducible band. Lane 1, uninfected cells; lane 2, MCMV-infected; lane 3, Thymosin alpha 1 treated; lane 4, MCMV+Thymosin alpha 1 treated. (FIG. 3b) Cytokine production (pg/ml) by DC subsets treated as above. Bars indicate the standard errors. *P<0.05, cytokine production in MCMV-infected DC vs uninfected DC. **P<0.05, Thymosin alpha 1-treated vs untreated DC. (FIG. 3c) Cytokine production in mice during MCMV infection. Cytokine levels (pg/ml) in culture supernatants of spleen cells from mice with MCMV infection and treated for a week with Thymosin alpha 1 or GCV. *P<0.05, treated vs untreated mice. ND, not done.
DC subset generation. DC were obtained by culturing 10^6/ml BALB/c bone marrow cells in Iscove's modified medium, containing 10% filtered bovine serum, 50 μM 2-mercaptoethanol, sodium pyruvate (1 mM), 2 mM L-glutamine, HEPES (10 mM), and 50 μg/ml gentamycin in the presence of 150 U/ml mouse rGM-CSF (Sigma) and 75 U/ml rIL-4 (R&D Systems) for 7 days to obtain CD11b+DC or 200 ng/ml FLT3-L (Immunex Corporation, Seattle, Wash.) for 9 days to obtain pDC. Final maturation was accomplished by the addition of 1 μg/ml LPS or 2 μg/ml cytosine phosphorothioate-guanine oligodeoxynucleotide (CpG-B ODN 1668) (Coley Pharmaceutical Group, Wellesley, Mass.) for additional 24 h to CD11b+DC or pDC, respectively (Blood 2003; 102: 3807-344; 3814) CD11b+DC were discriminated on CD11chigh expression and were distinctly composed of CD8a+DC and CD11b+DC. pDC were defined as CD11clow, Ly6C+, CD8a+/− cells. Photographs were taken using a high Resolution Microscopy Color Camera AxioCam, using the AxioVision Software Rel. […]
Quantification of cytokines by ELISA and ELISPOT assays. The levels of cytokines in the culture supernatants of mitogen-stimulated spleen cells (48 h stimulation with 10 μg/ml ConA) or MCMV-pulsed DC (24 h) were determined by ELISA (R&D Systems and PBL, Biomedical Lab, Milan, Italy). […] Results are expressed as the mean number of cytokine-producing cells (±SE) per 10^5 cells, calculated using replicates of serial 2-fold dilutions of cells.

MCMV = MCMV viral load in TLR-deficient mice (plaque assay); type: in vivo, C57BL6, TLR4-/-, TLR9-/- and MyD88-/- mice; settings: 200 μg/kg for a week
Method: Viral load (FIG. 4a) and cytokine production (FIG. 4b) in C57BL6, TLR4−/−, TLR9−/− and MyD88−/− mice infected with 5×10^5 PFU of MCMV and treated with 200 μg/kg Tα1 for a week. Virus titers, expressed as log 10, were quantified on MEF cells by standard plaque assay on infected tissues removed a week after infection and treatment. Cytokine (pg/ml) levels in culture supernatants of spleen cells were determined by ELISA assay. Bars indicate the standard errors. *P<0.05, Tα1-treated vs untreated mice. Results are representative of 3 independent experiments. Mice. Wild-type (WT) inbred C57BL6 and BALB/c mice, 8 to 12 weeks old, were purchased from Charles River Breeding Laboratories (Calco, Italy). Pairs of homozygous TLR9-(TLR9−/−), TLR4-(TLR4−/−), and MyD88-(MyD88−/−)-deficient mice (on the C57BL6 background), were bred under specific pathogen-free conditions at the breeding facilities of the University of Perugia, Perugia, Italy. Experiments were performed following protocols approved by the institutional animal committee and in accordance with European Economic Community Council Directive as well as institutional animal care and use guidelines. Plaque assay. Plaque assay was determined on cells grown to subconfluence and incubated with serially diluted virus samples for 2 h at 37° C. (10). All organs from uninfected animals were negative viruses. Virus titers are expressed as log 10 (mean±standard errors, SE).

[1] = tested on: methylcholanthrene-induced fibrosarcoma; settings: mouse, in vivo; cited from earlier work
[2] = spleen, MCMV-infected BALB/c mice

Q: With “Ac-Ser-Asp-Ala-Ala-Val-Asp-Thr-Ser-Ser-Glu -Ile-Thr-Thr-Lys-Asp-Leu-Lys-Glu-Lys-Lys-Glu-Val-Glu-Glu-Ala-Glu-Asn-O (Ac-SDAAVDTSSEITTKDLKEKKEVEEAEN) [Thymosin alpha 1, acidic peptide present in thymus extract with immunoregulatory properties]” as the substance, how does the “frequency of IFN-.-producing cells (ELISPOT)” value (NK cells; ex-vivo purified splenic NK cells) read?
A: Its value is “significantly up-regulated”.

Q: And the “expansion of CD4+ or CD8+ T cells” value (NK cells; [2])?
A: Its value is “not affecting the expansion”.

Q: What about the “expansion of NK1.1+ NK cells” value (NK cells; [2]) of the same substance?
A: The value was “expanded”.

Q: What about the “expression of the activation marker CD69 on NK cells” value (NK cells; [2]) of the same substance?
A: Its value is “increased expression”.

Q: And the “production of IFN-a” value (CD11b+DC or pDC; CD11b+DC)?
A: Its value is “slightly promoted”.

Q: What about the “production of IFN-a” value (CD11b+DC or pDC; pDC pre-treated) of the same substance?
A: Its value is “greatly increased”.

Q: What about the “production of IL-12p70” value (CD11b+DC or pDC; pDC pre-treated) of the same substance?
A: The value was “not affecting”.

Q: And the “antiviral effect (viral load)” value (MCMV; C57BL6 mice)?
A: The value was “effective”.

Q: And the “antiviral effect (viral load)” value (MCMV; MyD88-/- mice)?
A: The value was “completely ineffective”.

Q: And the “antiviral effect (viral load)” value (MCMV; TLR4-/- mice)?
A: Its value is “effective”.

Q: What about the “antiviral effect (viral load)” value (MCMV; TLR9-/- mice) of the same substance?
A: The value was “completely ineffective”.

Q: What about the pulmonary metastases [1] of the same substance?
A: The pulmonary metastases was “reduced”.
